Assay results taken from ChEMBL document CHEMBL4627246, “Pyroglutamide-Based P2X7 Receptor Antagonists Targeting Inflammatory Bowel Disease” (J Med Chem, 2020).

Experiments:
Format in all cases: cell-based
CAKI-1 = test: Growth inhibition of human Caki1 cells assessed as growth percentage at 10 uM incubated for 48 hrs by sulforhodamine B assay; conditions: caki-1, 48 h
Hs-578T = test: Cytotoxicity against human Hs 578T cells assessed as effect on cell growth at 10 uM incubated for 48 hrs by sulforhodamine B assay
Malme-3M = test: Cytotoxicity against human MALME-3M cells assessed as effect on cell growth at 10 uM incubated for 48 hrs by sulforhodamine B assay
BT-549 = test: Cytotoxicity against human BT549 cells assessed as effect on cell growth at 10 uM incubated for 48 hrs by sulforhodamine B assay; conditions: bt-549, 48 h
SF-295 = test: Cytotoxicity against human SF295 cells assessed as effect on cell growth at 10 uM incubated for 48 hrs by sulforhodamine B assay; conditions: sf-295, 48 h
MDA-MB-468 = test: Cytotoxicity against human MDA-MB-468 cells assessed as effect on cell growth at 10 uM incubated for 48 hrs by sulforhodamine B assay; conditions: mda-mb-468, 48 h
MDA-MB-435 = test: Cytotoxicity against human MDA-MB-435 cells assessed as effect on cell growth at 10 uM incubated for 48 hrs by sulforhodamine B assay; conditions: mda-mb-435, 48 h
TK-10 = test: Cytotoxicity against human TK10 cells assessed as effect on cell growth at 10 uM incubated for 48 hrs by sulforhodamine B assay; conditions: tk-10, 48 h
KM12 = test: Cytotoxicity against human KM12 cells assessed as effect on cell growth at 10 uM incubated for 48 hrs by sulforhodamine B assay; conditions: km12, 48 h
M14 = test: Cytotoxicity against human M14 cells assessed as effect on cell growth at 10 uM incubated for 48 hrs by sulforhodamine B assay; conditions: m14, 48 h
NCI-H322M = test: Cytotoxicity against human NCI-H322M cells assessed as effect on cell growth at 10 uM incubated for 48 hrs by sulforhodamine B assay
COLO 205 = test: Cytotoxicity against human COLO205 cells assessed as effect on cell growth at 10 uM incubated for 48 hrs by sulforhodamine B assay; conditions: colo 205, 48 h
SR = test: Cytotoxicity against human SR cells assessed as effect on cell growth at 10 uM incubated for 48 hrs by sulforhodamine B assay
OVCAR-8 = test: Cytotoxicity against human OVCAR8 cells assessed as effect on cell growth at 10 uM incubated for 48 hrs by sulforhodamine B assay; conditions: ovcar-8, 48 h
NCI-H460 = test: Cytotoxicity against human NCI-H460 cells assessed as effect on cell growth at 10 uM incubated for 48 hrs by sulforhodamine B assay; conditions: nci-h460, 48 h
U-251 = test: Cytotoxicity against human U251 cells assessed as effect on cell growth at 10 uM incubated for 48 hrs by sulforhodamine B assay; conditions: u-251, 48 h
PC-3 = test: Cytotoxicity against human PC3 cells assessed as effect on cell growth at 10 uM incubated for 48 hrs by sulforhodamine B assay; conditions: pc-3, 48 h
HOP-92 = test: Cytotoxicity against human HOP92 cells assessed as effect on cell growth at 10 uM incubated for 48 hrs by sulforhodamine B assay; conditions: hop-92, 48 h
NCI-H23 = test: Cytotoxicity against human NCI-H23 cells assessed as effect on cell growth at 10 uM incubated for 48 hrs by sulforhodamine B assay; conditions: nci-h23, 48 h
NCI-H226 = test: Cytotoxicity against human NCI-H226 cells assessed as effect on cell growth at 10 uM incubated for 48 hrs by sulforhodamine B assay; conditions: nci-h226, 48 h

Measured: Activity

O=C(NCc1ccc(Cl)cc1Cl)[C@@H]1CCC(=O)N1c1ccccc1
Non-Toxic: all assays above

O=C(NCc1ccccc1Cl)[C@@H]1CCC(=O)N1Cc1ccccc1Cl
Non-Toxic: all assays above

O=C1N[C@H](C(=O)NCc2ccc(Cl)cc2Cl)CO1
Non-Toxic: all assays above

CN1C(=O)CC[C@H]1C(=O)NCc1cccc(C(F)(F)F)c1Cl [GSK1482160]
Non-Toxic: all assays above

C[n+]1ccccc1C(=O)NCc1ccc(Cl)cc1Cl.[I-]
Non-Toxic: all assays above

COc1cc(CNC(=O)[C@@H]2CCC(=O)N2)cc(OC)c1OC
Non-Toxic: all assays above

O=C(NCc1ccc(Cl)cc1Cl)[C@@H]1CCC(=O)N1c1cncs1
Non-Toxic: all assays above

O=C(NCC1CCCCC1)[C@@H]1CCC(=O)N1c1ccccc1
Non-Toxic: all assays above

O=C1N[C@H](C(=O)NCc2ccc(Cl)cc2Cl)C/C1=C\N1CCOCC1
Non-Toxic: all assays above

O=C(NCc1ccc(Cl)cc1Cl)[C@@H]1CCC(=O)N1Cc1ccccc1
Non-Toxic: all assays above

O=C(NCc1ccc(Cl)cc1Cl)[C@@H]1CCC(=O)N1c1cscn1
Non-Toxic: all assays above

CN(C)/C=C1\C[C@H]2C(=O)N(Cc3ccccc3Cl)C(N(C)C)N2C1=O (stereo not given in full)
Non-Toxic: all assays above

O=C(NCCc1ccccc1)[C@@H]1CCC(=O)N1Cc1ccc(Br)cc1
Non-Toxic: all assays above

COc1ccc(CN2C(=O)CC[C@H]2C(=O)NCCc2ccccc2)cc1
Non-Toxic: all assays above
